Source: patent US20070191357A1, “METHODS OF USING POTASSIUM CHANNEL INHIBITING COMPOUNDS” (priority 2005, published 2007)

Molecular target: T1, human potassium Kv1.3 (Homo sapiens, UniProt P22001)
T1 construct: expressed in transfected cells; host or cells: stably transfected cells grown in serum-free medium for CHO cells (CHO inferred from the medium)
Assay: Electrophysiological examination (whole-cell patch-clamp) of the Kv1.3-mediated potassium current in CHO cells
Format: cell-based
Conditions: 10 μM example compound 1, time course
Method: 1. Electrophysiological Examination of Test Compounds on the KV1.3-Mediated Potassium Current
cDNA coding for the human potassium Kv1.3 was cloned into a standard vector. A C-terminal epitope-tag was introduced via PCR. The plasmid was sequenced and subsequently introduced into cells and a clonal cell line was established. Expression of protein was analyzed by means of immunofluorescence using antibodies directed against the epitope-tag.
Experiments were performed in CHO cells stably expressing the potassium Kv1.3 potassium channel. […]
Patch-clamp experiments were performed in the voltage-clamp mode (Hamill et al., 1981) and whole-cell currents were recorded. Patch pipettes were pulled from borosilicate glass tubes. Current signals were amplified and digitized by an EPC patch-clamp amplifier (HEKA-Electronics, Lambrecht, Germany), stored and analyzed on a personal computer using the Pulse/Pulsefit software (HEKA, Lambrecht, Germany). Experiments were conducted at room temperature.
For investigating effects and reversibility of a test compound on the Kv1.3 potassium channel, CHO cells were clamped at a holding potential (HP) of −80 mV. The following stimulation protocol (scheme 1) was applied successively and the induced currents have been recorded: […]
The application protocol of the test compound is depicted in scheme 2. […] Nonspecific current reduction was calculated and serves for correction procedures during data analysis. […] Effect of the test compound was analyzed between stimulus nos. […]
The appropriate experiment was selected from the data tree in the Pulse software. […] The leak current amplitude during the prepulse to −90 mV and the peak current amplitude of the test-pulse to +40 mV were measured by placing the cursors on the oscilloscope screen (FIG. 3). […]
FIG. 1: Kv1.3-mediated potassium current. […] The two cursors on the right indicate the range of the test pulse, where the peak current amplitude was evaluated (205-230 ms of the test pulse to +40 mV). The two cursors on the left indicate the area where the mean leak current was evaluated (100-140 ms of the test pulse to −90 mV). […]

T1 sequence (P22001 whole entry): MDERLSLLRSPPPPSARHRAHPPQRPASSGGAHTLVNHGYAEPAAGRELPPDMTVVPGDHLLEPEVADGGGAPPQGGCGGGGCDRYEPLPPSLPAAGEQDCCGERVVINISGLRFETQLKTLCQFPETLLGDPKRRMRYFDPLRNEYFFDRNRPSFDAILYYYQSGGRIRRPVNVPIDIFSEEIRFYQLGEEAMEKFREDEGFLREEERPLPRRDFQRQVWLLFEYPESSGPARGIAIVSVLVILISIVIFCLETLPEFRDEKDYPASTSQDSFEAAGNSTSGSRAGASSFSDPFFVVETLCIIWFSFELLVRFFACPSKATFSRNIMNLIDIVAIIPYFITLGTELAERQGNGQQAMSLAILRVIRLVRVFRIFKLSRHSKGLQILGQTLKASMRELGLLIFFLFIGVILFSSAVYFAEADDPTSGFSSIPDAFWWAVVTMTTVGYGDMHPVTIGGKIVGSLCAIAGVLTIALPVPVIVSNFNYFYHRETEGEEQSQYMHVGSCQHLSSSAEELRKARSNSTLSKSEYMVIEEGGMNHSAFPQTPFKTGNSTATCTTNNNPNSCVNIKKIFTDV

SMILES | Effect on current amplitude (in words)
CN=C(NS(=O)(=O)c1ccc(Cl)cc1)N1C[C@H](c2ccccc2)C(c2ccc(Cl)cc2)=N1 [example compound 1] | significant current reduction

Same assay, conditions: in the presence of 0.1% BSA; fit of equation (4)

SMILES | Hill coefficient nH
CN=C(NS(=O)(=O)c1ccc(Cl)cc1)N1C[C@H](c2ccccc2)C(c2ccc(Cl)cc2)=N1 [example compound 1] | 0.72±0.22

Same assay, conditions: over the tested concentrations

SMILES | Effect on outward Kv1.3-mediated current amplitudes (in words)
CN=C(NS(=O)(=O)c1ccc(Cl)cc1)N1C[C@H](c2ccccc2)C(c2ccc(Cl)cc2)=N1 [example compound 1] | reduced in a concentration-dependent manner

Molecular target: T1, human potassium Kv1.3
Assay: Potassium Kv1.3 autopatch electrophysiology method, percentage charge inhibition
Format: cell-based
Conditions: concentration not given (compounds made up at 1 μM and 10 μM)
Method: 2. Electrophysiological Examination of Test Compounds on the Kv1.3-Mediated Potassium Current (Potassium Kv1.3 Autopatch Electrophysiology Method)
In another set of experiments, the inhibition of the potassium Kv1.3 channel has been measured.
Cells stably transfected with cDNA for human potassium Kv1.3 (in pcDNA3.1) were grown in Ex-cell 302 serum-free medium for CHO cells, supplemented with 10 μl/ml [100×] glutamine, 500 μg/ml G418, and 1% HT supplement (50×, hypoxanthine and thymidine). The cells were cultured in 350 ml spinner (Techne) spun at 80 rpm, at 37° C. in a water-saturated 5% CO2 incubator. The day of the preparation an aliquot of cells was 5 times diluted in fresh media and counted with a glass counting chamber type Malassez. Then six tubes of 10 ml were prepared at 6×10^6 c/ml. The tubes were then placed at 4° C. until their use.
The external bathing solution contained (in mM): 150 NaCl, 10 KCl, 1 MgCl2, 3 CaCl2 and 10 HEPES. The pH was adjusted to 7.4 with NaOH. Patch pipettes were filled with a pipette solution of composition (in mM): 100 K-Gluconate, 20 KCl, 1 MgCl2, 1 CaCl2, 10 HEPES, 11 EGTA, 5 ATP-Na2 and 2 Glutathione. The pH was adjusted to 7.2 with KOH. Using fresh 100 ml bathing solution, 0.05% BSA re-suspension solution (0.05 g BSA/100 ml bather) was prepared.
Compounds were dissolved in DMSO (100%) and made up in the external bather at concentrations of 1 μM and 10 μM. All experiments were conducted at room temperature.
Two tubes of cell suspension were centrifuged at 1000 rpm for 4 minutes at room temperature. 10 ml of supernatant was carefully aspirated and discarded from each tube, with care being taken not to aspirate the cell pellet sitting at the bottom of the tube. The cell pellet of each tube was broken-up by gentle manual agitation of the tube. 600 μl of re-suspension solution was added to the cell pellet, followed by a gentle trituration step to re-suspend the cells. Once re-suspended, 600 μl of solution per tube was removed from each tube, such that 1.2 ml of cell suspension was obtained in total and placed in a temperature-controlled cell hotel, set at either 4° C. or dew point. Cells were maintained in suspension in the hotel through gentle trituration every 30 s via an automatic cell suspension system.
Harvard borosilicate capillary glass (GC1507F-10, […], supplied in 100 mm lengths) was cut down to 24 mm lengths using a Dagen capillary cutter. Short (13 mm) patch pipettes were pulled using a 2-stage pull on a specially adapted DMZ pipette puller (Zeitz Instruments). Patch pipettes typically have resistances of 2.3-3.5 MΩ. As the patch pipettes were pulled in batches, pipette tip resistance was measured every tenth pipette using a Tenma meter in order to maintain consistency of tip resistance. Pulled pipettes were stored in Petri dish before filling.
Each pipette was fully back-filled (from the tip to the end) using the internal pipette solution and the pipette tip was dipped in Sigmacote (Sigma). The pipette was then precisely inserted, tip first, into a pipette holder using a custom-made, pneumatic insertion rig, with the blunt end of the patch pipette sitting proud of the bottom of the pipette holder.
Whole cell patch-clamp recordings (WCRs) were made using the AP2, which incorporates an EPC9 or EPC10 amplifier (HEKA, Germany) under control of Pulse software (v8.54 or v8.76, HEKA, Germany), the patch plate contact fixture, a Gilson autosampler for cell delivery (the cell sampler), a Gilson autosampler for drug preparation (the auto-sampler), the drug application system (DAS), a feedback-controlled suction device for enabling high resistance GΩ seals to be formed for the whole cell recording mode to be attained, a cell re-suspension system, a temperature-controlled cell hotel, a vacuum line and associated pumps for applying suction and for draining the patch plate wells of bather.
Under control of the AP2 software, automated patch-clamping was initiated. […]

SMILES | Inhibition of the Potassium Kv1.3 channel (%)
CN1CCC(CNC(=NS(=O)(=O)c2ccc(Cl)cc2)N2CC(c3ccccc3)C(c3ccc(Cl)cc3)=N2)C1 (stereo not shown) | 96.2%
Cc1c(C(=O)NN2CCCCC2)nn(-c2ccc(Cl)cc2Cl)c1-c1ccc(Cl)cc1 [Rimonabant, reference compound] | 89.2%
CN(C)CCNC(=NS(=O)(=O)N1CCCCC1)N1CC(c2ccccc2)C(c2ccc(Cl)cc2)=N1 (stereo not shown) | 58.4%
CNC(=NS(=O)(=O)c1ccc(Cl)cc1)N1CC(c2cccnc2)C(c2ccc(Cl)cc2)=N1 (stereo not shown) | 88.7%
CCc1c(C(=O)NN2CCCCC2)nn(-c2ccc(Cl)cc2Cl)c1-c1ccc(Br)cc1 [SR-147778, reference compound] | 63.7%
CNC(=NS(=O)(=O)N1CCC(O)CC1)N1CC(c2ccccc2)C(c2ccc(Cl)cc2)=N1 (stereo not shown) | 92.8%
CNC(=NS(=O)(=O)N(C)C)N1CC(c2cccc(F)c2)C(c2ccc(Cl)cc2)=N1 (stereo not shown) | 88.1%
CC1=Nc2ccc(Cl)cc2S(=O)(=O)N1 [Diazoxide, reference compound] | 46.5%
CC1(NC2=NS(=O)(=O)c3sc(Cl)cc3N2)CC1 [NN414, reference compound] | 45.1%
CN[C@@H](Cc1c[nH]c2ccccc12)C(=O)N1CC(c2ccccc2)C(c2ccc(Cl)cc2)=N1 (stereo partly shown) | 87.8%
CCN(CC)C(=O)c1cn(-c2ccc(Cl)cc2)c(-c2ccc(Cl)cc2Cl)n1 | 76.2%
Cc1c(C(=O)c2cccc3ccccc23)c2cccc3c2n1[C@H](CN1CCOCC1)CO3 [R(+)-WIN55212-2, reference compound] | 81.5%
CON/C(=N\S(=O)(=O)c1ccc(Cl)cc1)N1C[C@H](c2cccc(F)c2)C(c2ccc(Cl)cc2)=N1 | 76.0%
O=S(=O)(N=C(NCCF)N1CC(c2ccccc2)C(c2ccc(Cl)cc2)=N1)c1ccc(Cl)cc1 (stereo not shown) | 77.1%
CCCCCCC(C)(C)c1cc(OC)c([C@H]2C=C(CO)[C@H]3C[C@@H]2C3(C)C)c(OC)c1 [HU-308, reference compound] | 81.2%

Test system: not listed separately
Assay: Solubility as noted during the Kv1.3 patch-clamp experiments
Conditions: bath solution; 0.1% BSA used to overcome it

SMILES | Solubility (in words)
CN=C(NS(=O)(=O)c1ccc(Cl)cc1)N1C[C@H](c2ccccc2)C(c2ccc(Cl)cc2)=N1 [example compound 1] | low solubility
